Assay results published in PMC12396409, “Screening and hit evaluation of a microbial metabolite library against the pathogenic Plasmodium falciparum and Toxoplasma gondii parasites” (International Journal for Parasitology: Drugs and Drug …, 2025).
Like-named read-outs stand apart in the source and are kept apart here. Where a SMILES comes first, the peptide text is derived from it. Bridges are numbered along the chain shown (N, C = ends). [ ]: non-standard residue; d: D form. The star is where a group is joined. Octatrienoyl(2E,4E,6E) = C/C=C/C=C/C=C/C(=O)*; Pro(4R-Me) = C[C@H]1CN[C@H](C(=O)O)C1; NMeA = CN[C@@H](C)C(=O)O

Experiments:
[1] = test system: P. falciparum 3D7 parasites; assay: P. falciparum growth inhibition assay, 2-cycle (120 h treatment), delayed-death screen and dose-response; format: cell-based, Plasmodium falciparum; conditions: for Pf_120h_%Growth_Rep1 / Pf_120h_%Growth_Rep2: % growth; for activity at 2 µg/mL: Plasmodium falciparum, 3D7, screen at 2 μg/mL
[2] = test system: T. gondii RH strain (RH-Tub-eYFP) tachyzoites; assay: microbe, parasite or virus in culture; format: cell-based, Toxoplasma gondii; conditions: 72 h; for Tg_72h_%Growth_Rep1 / Tg_72h_%Growth_Rep2: % growth; for percent parasite growth at 2 µg/mL: Toxoplasma gondii, screen at 2 μg/mL
[3] = test system: P. falciparum 3D7 parasites; assay: P. falciparum growth inhibition assay, 1-cycle (72 h treatment), SYBR DNA staining (library screen at 2 μg/mL and dose-response); format: cell-based, Plasmodium falciparum; conditions: for Pf_72h_%Growth_Rep1 / Pf_72h_%Growth_Rep2: % growth; for activity at 2 µg/mL: Plasmodium falciparum, 3D7, screen at 2 μg/mL
[4] = library screen at 2 μg/mL, 120 h, replicate 1
[5] = library screen at 2 μg/mL, 120 h, replicate 2
[6] = library screen at 2 μg/mL, replicate 1
[7] = library screen at 2 μg/mL, replicate 2
[8] = library screen at 2 μg/mL, 72 h, replicate 1
[9] = library screen at 2 μg/mL, 72 h, replicate 2
[10] = P. falciparum 3D7, 120 h, parasite screen at 2 μg/mL, replicate 1
[11] = P. falciparum 3D7, 120 h, parasite screen at 2 μg/mL, replicate 2
[12] = T. gondii, parasite screen at 2 μg/mL, replicate 1
[13] = T. gondii, parasite screen at 2 μg/mL, replicate 2
[14] = P. falciparum 3D7, 72 h, parasite screen at 2 μg/mL, replicate 1
[15] = P. falciparum 3D7, 72 h, parasite screen at 2 μg/mL, replicate 2

**Q.** With `Cc1c2c(c(O)c3c(O)cccc13)C(=O)[C@]1(O)C(O)=C(C(N)=O)C(=O)[C@H](N(C)C)[C@@H]1C2.Cl` [Epianhydrotetracycline hydrochloride] as the molecule, how does the Pf_120h_%Growth_Rep1 [1, 4] read?
**A.** 77.42%

**Q.** And the Pf_120h_%Growth_Rep2 [1, 5]?
**A.** 113.33%

**Q.** And the Tg_72h_%Growth_Rep1 [2, 6]?
**A.** 166.02%

**Q.** And the Tg_72h_%Growth_Rep2 [2, 7]?
**A.** 109.09%

**Q.** What about the Pf_72h_%Growth_Rep1 [3, 8] of the same molecule?
**A.** 83.48%

**Q.** What about the Pf_72h_%Growth_Rep2 [3, 9] of the same molecule?
**A.** 108.73%

**Q.** How did the Pf_120h_%Growth_Rep1 [1, 4] turn out when `CC[C@H](C)[C@H]1O[C@]2(C=C[C@@H]1C)C[C@@H]1C[C@@H](C/C=C(\C)[C@@H](O)[C@@H](C)/C=C/C=C3\CO[C@@H]4[C@H](O)C(C)=C[C@@H](C(=O)O1)[C@]34O)O2` [Avermectin B1a aglycone] was run?
**A.** 81.78%

**Q.** What about the Pf_120h_%Growth_Rep2 [1, 5] of the same molecule?
**A.** 74.45%

**Q.** And the Tg_72h_%Growth_Rep1 [2, 6]?
**A.** 137.71%

**Q.** And the Tg_72h_%Growth_Rep2 [2, 7]?
**A.** 97.71%

**Q.** What about the Pf_72h_%Growth_Rep1 [3, 8] of the same molecule?
**A.** 81.70%

**Q.** What about the Pf_72h_%Growth_Rep2 [3, 9] of the same molecule?
**A.** 78.59%

**Q.** `COC1=C(O)c2c(O)cc(C)c3c(O)cc(O)c(c23)C1=O` [Funalenone] was tested. Which Pf_120h_%Growth_Rep1 [1, 4] did it give?
**A.** 97.73%

**Q.** What about the Pf_120h_%Growth_Rep2 [1, 5] of the same molecule?
**A.** 107.04%

**Q.** And the Tg_72h_%Growth_Rep1 [2, 6]?
**A.** 131.40%

**Q.** What about the Tg_72h_%Growth_Rep2 [2, 7] of the same molecule?
**A.** 92.93%

**Q.** What about the Pf_72h_%Growth_Rep1 [3, 8] of the same molecule?
**A.** 89.99%

**Q.** What about the Pf_72h_%Growth_Rep2 [3, 9] of the same molecule?
**A.** 108.10%

**Q.** How did the Pf_120h_%Growth_Rep1 [1, 10] turn out when `CC=C(C)c1c(Cl)c(OC)c(C)c2c1Oc1c(Cl)c(O)c(Cl)c(C)c1C(=O)O2` [BIA-N1157] was run?
**A.** 89.90%

**Q.** What about the Pf_120h_%Growth_Rep2 [1, 11] of the same molecule?
**A.** 141.00%

**Q.** What about the Tg_72h_%Growth_Rep1 [2, 12] of the same molecule?
**A.** 96.79%

**Q.** What about the Tg_72h_%Growth_Rep2 [2, 13] of the same molecule?
**A.** 78.56%

**Q.** And the Pf_72h_%Growth_Rep1 [3, 14]?
**A.** 86.70%

**Q.** What about the Pf_72h_%Growth_Rep2 [3, 15] of the same molecule?
**A.** 91.20%

**Q.** Which Pf_120h_%Growth_Rep1 ([1]; P. falciparum, 120 h, parasite screen 2 μg/mL, replicate 1) does the source give for `Cc1cc(O)c2c(c1)C(=O)C13C(=C2O)C(=O)C2C(O)C1C1C(O)C3C(=O)C3=C(O)c4c(O)cc(C)cc4C(=O)C321` (stereo not drawn) [Rugulosin + form] here?
**A.** 82.55%

**Q.** And the Pf_120h_%Growth_Rep2 ([1]; P. falciparum, 120 h, parasite screen 2 μg/mL, replicate 2)?
**A.** 131.94%

**Q.** And the Tg_72h_%Growth_Rep1 ([2]; T. gondii, parasite screen 2 μg/mL, replicate 1)?
**A.** 114.00%

**Q.** And the Tg_72h_%Growth_Rep2 ([2]; T. gondii, parasite screen 2 μg/mL, replicate 2)?
**A.** 82.13%

**Q.** What about the Pf_72h_%Growth_Rep1 ([3]; P. falciparum, 72 h, parasite screen 2 μg/mL, replicate 1) of the same molecule?
**A.** 87.73%

**Q.** What about the Pf_72h_%Growth_Rep2 ([3]; P. falciparum, 72 h, parasite screen 2 μg/mL, replicate 2) of the same molecule?
**A.** 120.80%

**Q.** With `C=CC(C)(C)[C@@]12C[C@H]3C(=O)N[C@H](CC(C)C)C(=O)N3[C@H]1N(C(C)=O)c1ccccc12` [Verrucofortine] as the molecule, how does the activity at 2 µg/mL ([1]; P. falciparum, 120 h, replicate 1, read-out: Pf_120h_%Growth_Rep1) read?
**A.** 152%

**Q.** What about the activity at 2 µg/mL ([1]; P. falciparum, 120 h, replicate 2, read-out: Pf_120h_%Growth_Rep2) of the same molecule?
**A.** 81.9%

**Q.** And the percent parasite growth at 2 µg/mL ([2]; T. gondii, replicate 1, read-out: Tg_72h_%Growth_Rep1)?
**A.** 90.9%

**Q.** What about the percent parasite growth at 2 µg/mL ([2]; T. gondii, replicate 2, read-out: Tg_72h_%Growth_Rep2) of the same molecule?
**A.** 99.7%

**Q.** What about the activity at 2 µg/mL ([3]; P. falciparum, 72 h, replicate 1, read-out: Pf_72h_%Growth_Rep1) of the same molecule?
**A.** 70%

**Q.** What about the activity at 2 µg/mL ([3]; P. falciparum, 72 h, replicate 2, read-out: Pf_72h_%Growth_Rep2) of the same molecule?
**A.** 83.7%

**Q.** With `CC(C)c1ncc(Cc2ccccc2)[nH]c1=O` [Aureusimine B] as the molecule, how does the Pf_120h_%Growth_Rep1 [1, 4] read?
**A.** 140.97%

**Q.** And the Pf_120h_%Growth_Rep2 [1, 5]?
**A.** 94.84%

**Q.** And the Tg_72h_%Growth_Rep1 [2, 6]?
**A.** 82.28%

**Q.** What about the Tg_72h_%Growth_Rep2 [2, 7] of the same molecule?
**A.** 99.21%

**Q.** What about the Pf_72h_%Growth_Rep1 [3, 8] of the same molecule?
**A.** 102.22%

**Q.** And the Pf_72h_%Growth_Rep2 [3, 9]?
**A.** 85.03%

**Q.** Which Pf_120h_%Growth_Rep1 [1, 4] does the source give for `C/C=C/C=C/C=C/C(=O)N[C@@H](Cc1ccccc1)C(=O)N[C@H]1COC(=O)[C@@H]2C[C@@H](C)CN2C(=O)[C@H](C)NC(=O)[C@H](C)N(C)C(=O)[C@@H]2CCCN2C1=O` [A 54556A] ({Octatrienoyl(2E,4E,6E)}-FSP[NMeA]A[Pro(4R-Me)]; ester 2-C) here?
**A.** 58.56%

**Q.** What about the Pf_120h_%Growth_Rep2 [1, 5] of the same molecule?
**A.** 46.42%

**Q.** And the Tg_72h_%Growth_Rep1 [2, 6]?
**A.** 149.51%

**Q.** What about the Tg_72h_%Growth_Rep2 [2, 7] of the same molecule?
**A.** 92.23%

**Q.** And the Pf_72h_%Growth_Rep1 [3, 8]?
**A.** 73.00%

**Q.** What about the Pf_72h_%Growth_Rep2 [3, 9] of the same molecule?
**A.** 56.16%

**Q.** How did the Pf_120h_%Growth_Rep1 ([1]; P. falciparum 3D7, 120 h, library screen at 2 μg/mL, replicate 1) turn out when `O=C1CCCC2C3CC(CN12)C1CCCCN1C3` (stereo not drawn) [BIA-L1951] was run?
**A.** 173.37%

**Q.** What about the Pf_120h_%Growth_Rep2 ([1]; P. falciparum 3D7, 120 h, library screen at 2 μg/mL, replicate 2) of the same molecule?
**A.** 101.50%

**Q.** What about the Tg_72h_%Growth_Rep1 ([2]; T. gondii RH, library screen at 2 μg/mL, replicate 1) of the same molecule?
**A.** 86.61%

**Q.** And the Tg_72h_%Growth_Rep2 ([2]; T. gondii RH, library screen at 2 μg/mL, replicate 2)?
**A.** 107.54%

**Q.** What about the Pf_72h_%Growth_Rep1 ([3]; P. falciparum 3D7, 72 h, library screen at 2 μg/mL, replicate 1) of the same molecule?
**A.** 95.10%

**Q.** And the Pf_72h_%Growth_Rep2 ([3]; P. falciparum 3D7, 72 h, library screen at 2 μg/mL, replicate 2)?
**A.** 93.40%

**Q.** `CCC1OC2(CCC1C)CC1CC(CC=C(C)CC(C)C=CC=C3COC4C(=NO)C(C)=CC(C(=O)O1)C34O)O2` (stereo not drawn) [BIA-M1532] was tested. Which Pf_120h_%Growth_Rep1 [1, 10] did it give?
**A.** 8.04%

**Q.** And the Pf_120h_%Growth_Rep2 [1, 11]?
**A.** 16.57%

**Q.** And the Tg_72h_%Growth_Rep1 [2, 12]?
**A.** 83.72%

**Q.** What about the Tg_72h_%Growth_Rep2 [2, 13] of the same molecule?
**A.** 81.98%

**Q.** And the Pf_72h_%Growth_Rep1 [3, 14]?
**A.** 26.87%

**Q.** And the Pf_72h_%Growth_Rep2 [3, 15]?
**A.** 18.08%

**Q.** Which Pf_120h_%Growth_Rep1 [1, 10] does the source give for `CN(C)c1ccc(O)c2c1C[C@H]1C[C@H]3[C@H](N(C)C)C(O)=C(C(N)=O)C(=O)[C@@]3(O)C(O)=C1C2=O.Cl` [BIA-M1472] here?
**A.** 1.23%

**Q.** What about the Pf_120h_%Growth_Rep2 [1, 11] of the same molecule?
**A.** 73.75%

**Q.** And the Tg_72h_%Growth_Rep1 [2, 12]?
**A.** 5.81%

**Q.** And the Tg_72h_%Growth_Rep2 [2, 13]?
**A.** 37.51%

**Q.** And the Pf_72h_%Growth_Rep1 [3, 14]?
**A.** 19.15%

**Q.** What about the Pf_72h_%Growth_Rep2 [3, 15] of the same molecule?
**A.** 16.74%
